These results are taken from PMC7513592 (RSC Medicinal Chemistry, 2020).

“Also recorded” adds a separate entry of the source. Like-named read-outs stand apart in the source and are kept apart here.

One data set deals with T1, hERG (Homo sapiens, UniProt Q12809).
T1 construct: Eurofins Cerep SA, France (contract testing)
The data set is described as follows: In vitro polypharmacology (Eurofins Cerep): hERG. How it is done:
(§1) Fig. 8 In vitro polypharmacology for selected targets of 1 (blue diamonds) and 39 (red diamonds). Data are shown for each replicate (n = 2). The data for 1 were extracted from [ref. 17]. The experiments were conducted by Eurofins Cerep SA, France.
(§2) We also characterized the off-targets predicted to be potentially problematic for both compounds using the web-based target prediction tool PPB2.[41]
(In general: hERG is a cardiac potassium channel; its block is linked to QT prolongation.)

The next data set has as its target T2, hTRPV6 (Homo sapiens, UniProt Q9H1D0).
T2 sequence (Q9H1D0 1-765): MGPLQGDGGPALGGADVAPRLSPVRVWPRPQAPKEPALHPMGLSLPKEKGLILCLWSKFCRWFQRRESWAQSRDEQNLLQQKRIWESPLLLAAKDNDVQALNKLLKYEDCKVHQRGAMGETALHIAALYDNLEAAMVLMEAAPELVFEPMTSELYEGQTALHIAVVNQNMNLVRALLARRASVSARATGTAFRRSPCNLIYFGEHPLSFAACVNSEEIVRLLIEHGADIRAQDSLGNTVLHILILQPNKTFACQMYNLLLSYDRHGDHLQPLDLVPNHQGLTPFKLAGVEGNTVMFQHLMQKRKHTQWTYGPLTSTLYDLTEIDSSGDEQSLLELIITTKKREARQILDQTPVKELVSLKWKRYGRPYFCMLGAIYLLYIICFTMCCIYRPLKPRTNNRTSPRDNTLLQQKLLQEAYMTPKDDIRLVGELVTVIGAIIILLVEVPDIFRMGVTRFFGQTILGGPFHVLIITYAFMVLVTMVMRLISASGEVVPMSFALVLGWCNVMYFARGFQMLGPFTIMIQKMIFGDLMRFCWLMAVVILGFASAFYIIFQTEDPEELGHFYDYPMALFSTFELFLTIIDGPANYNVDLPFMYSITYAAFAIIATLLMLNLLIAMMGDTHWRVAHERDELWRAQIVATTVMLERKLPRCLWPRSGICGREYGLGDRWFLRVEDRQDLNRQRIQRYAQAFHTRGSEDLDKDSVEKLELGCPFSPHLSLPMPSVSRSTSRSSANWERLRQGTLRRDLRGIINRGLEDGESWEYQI
The data set can be described thus: Confocal microscopy of Cd2+ uptake in HEK-hTRPV6 cells (Leadmium Green). The format is cell-based. Details: expressed in transfected cells. The note with it: 10 μM, 30 min, versus vehicle. How it is done: . The cells were also stained with the wheat germ agglutinin Alexa Fluor™ 594 conjugate to mark the cytoplasmic membrane.[35],[36] […]. page 64:
HEK-hTRPV6 were trypsinized and plated at 1 x 10^4 cells/well onto poly-D-lysine coated Nunc Lab-Tek II 8-well chambered coverglass plates (Faust Laborbedarf AG, Schaffhausen) using 100 μl DMEM supplemented with 10% FBS and 2 mM glutamine without antibiotics or phenol-red. After 24 h of incubation at 37 °C, the medium was replaced by 200 µL/well of a mixture of Leadmiun Green (final concentration: 5 ng/µL), Hoechst 33258 (final concentration: 1 ng/µL) and wheat germ agglutinin Alexa Fluor® 594 conjugate (final concentration: 5 ng/µL) in NCF buffer. The chamber was covered with aluminum foil and was incubated at 37 °C for 30 min. Then, the buffer was removed, cells were washed twice with fresh NCF buffer (2 x 200 µL) and another 190 µL of NCF containing 10X of 39 was added. For control cells, 200 µL of NCF was added after washing. The chamber was mounted in the confocal microscope and 10 µL of CdCl2 (final concentration: 50 μM) was added right after the start of imaging (total duration: 30 min). […]
Fig S3. […] The total fluorescence intensity for each channel was plotted in graphs (B) and (D), respectively for DMSO and compound 39. […]

Data set [1] deals with store-operated calcium channels. The data set can be described thus: SOCE FLIPR assay in MDA-MB-231 cells. The format is cell-based, human. Conditions: 5 μM. How it is done:
Fig. 9 A. Recording of store-operated Ca^2+ entry (SOCE) in MDA-MB-231 cells pretreated for 20 min with either DMSO or SOCE inhibitor GSK-7975A, or 1vs.39. Ca^2+ store-depletion was achieved by 10 min treatment of cells with 1 μM thapsigargin (Tg) in a nominally Ca^2+ free buffer. […] The P-value of the 1vs.39 pretreated cells is indicated above the respective bar as *** for p ≤ 0.001 or non-significant (n.s.) for p > 0.05.
MDA-MB-231 cells were trypsinized and plated at 6 x 10^4 cells/well onto 96-well black plates with clear bottom using 100 μl phenol -red free RPMI medium supplemented with 10% FBS. SOCE activity was measured 16 h later using the previousl y described FLIPR assay.11 After 16 h the medium was replaced with 50 μL of NCF loading buffer and the cells were incubated at 37 °C for 40 min, following which 50 µL of 2X drugs were manually applied (GSK-7975A, 1 or 39) and the cells were incubated for another 20 min.
Stable Ca2+-free baselines were established for 50 seconds before 50 μL of a 3X thapsigargin (Tg) was robotically administered to the cells. Cells were incubated at 37 °C and fluorescence was monitored in the presence of Tg for an additional 10 minutes before administration of 50 μL of 4X CaCl 2. The activity of SOCE was measured by calculating the area under t he curve of the Ca2+ entry traces.

Data set [2] can be described thus: Half-life in human liver microsomes. The format is in vitro ADME. A general note: Liver microsomes are vesicles of endoplasmic reticulum, rich in cytochrome P450 enzymes.
A further data set relates to HEK293 wt cells. The data set can be described thus: Cadmium toxicity XTT assay, HEK293 wt. The format is cell-based, human. Conditions: 10 μM or 1 μM, 24 h. In general terms: Tetrazolium assays rely on reduction of a dye to a coloured formazan, in cell work by metabolically active cells.
Data set [3] deals with selected targets (off-targets predicted with PPB2). The data set is described as follows: In vitro polypharmacology for selected off-targets (Eurofins Cerep). How it is done:
as §1, §2

T1 sequence (Q12809 whole entry): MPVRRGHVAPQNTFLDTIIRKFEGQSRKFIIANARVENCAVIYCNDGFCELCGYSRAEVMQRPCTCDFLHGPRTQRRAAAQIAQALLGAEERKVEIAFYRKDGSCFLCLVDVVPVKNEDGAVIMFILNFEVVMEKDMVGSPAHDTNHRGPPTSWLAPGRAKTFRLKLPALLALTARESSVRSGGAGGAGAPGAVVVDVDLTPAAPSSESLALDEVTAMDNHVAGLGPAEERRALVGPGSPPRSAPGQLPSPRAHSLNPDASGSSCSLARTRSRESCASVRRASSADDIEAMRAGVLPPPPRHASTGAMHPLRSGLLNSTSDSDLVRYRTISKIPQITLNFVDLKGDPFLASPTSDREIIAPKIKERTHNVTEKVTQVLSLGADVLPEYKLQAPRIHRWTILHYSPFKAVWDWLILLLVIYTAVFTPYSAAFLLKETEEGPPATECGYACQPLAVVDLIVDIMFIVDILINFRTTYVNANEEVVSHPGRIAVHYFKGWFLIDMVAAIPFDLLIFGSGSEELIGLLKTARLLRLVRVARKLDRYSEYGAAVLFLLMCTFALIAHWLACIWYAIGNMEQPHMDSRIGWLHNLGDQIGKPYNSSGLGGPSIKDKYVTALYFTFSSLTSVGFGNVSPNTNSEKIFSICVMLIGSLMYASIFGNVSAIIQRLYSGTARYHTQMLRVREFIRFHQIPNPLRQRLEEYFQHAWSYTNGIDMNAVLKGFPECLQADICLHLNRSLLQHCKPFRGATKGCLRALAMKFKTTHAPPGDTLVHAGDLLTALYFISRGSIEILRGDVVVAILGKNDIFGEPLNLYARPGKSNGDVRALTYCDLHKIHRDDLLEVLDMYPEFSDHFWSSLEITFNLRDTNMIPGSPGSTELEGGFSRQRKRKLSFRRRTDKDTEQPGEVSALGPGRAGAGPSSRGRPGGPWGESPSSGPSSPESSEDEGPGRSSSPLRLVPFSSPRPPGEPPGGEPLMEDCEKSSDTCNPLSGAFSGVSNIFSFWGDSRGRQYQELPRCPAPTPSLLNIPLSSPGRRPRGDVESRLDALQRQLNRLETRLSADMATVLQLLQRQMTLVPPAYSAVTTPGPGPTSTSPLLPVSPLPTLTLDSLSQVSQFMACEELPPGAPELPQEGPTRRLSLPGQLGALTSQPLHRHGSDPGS

With `O=c1ccc(CN2CCN([C@H]3CC[C@@](O)(c4cccc(C(F)(F)F)c4)CC3)CC2)c[nH]1` [compound 39], the hERG activity entry on hERG was “completely abolished; also recorded: suppressed hERG inhibition”. Further, on hTRPV6, the “Leadmium Green fluorescence after Cd2+ (50 μM)” value is recorded as “significantly less pronounced”. In addition, the “activity on store-operated calcium channels” value in data set [1] is reported as “no detectable activity”. The microsomal stability result in data set [2] was “high microsomal stability”. Besides, in data set [2] (human, liver microsomes, read-out: half-life in human liver microsomes (t1/2)), the half-life was greater than 1 h. Besides, in the data set on HEK293 wt cells, the “effect on Cd2+ sensitivity” value is on record as “no effect”. In addition, the values for the off-target effects entry in data set [3] and in data set [3] (listed as 3OG) were “did not show any significant off-target effects” and “very low off-target effects”, respectively.
